Literature values, collected in patent publication US12280046B2, “Melanocortin subtype-2 receptor (MC2R) antagonist for the treatment of disease” (Crinetics Pharmaceuticals, Inc., priority 2021, dated 2025).
Starred links: 1 amine or outer side, 2 acyl side, 3 side chain; linkers in the order of their positions; H or OH if unused. Non-standard residues stand in square brackets, D forms with d. Residues, ends and D or L forms follow the SMILES beside them. Groups on a side chain read outwards from the residue. *: point of attachment. Ethylenediamine = C(CN[*:2])N[*:1]; Hyp = O=C(O)[C@@H]1C[C@@H](O)CN1; Phg = N[C@H](C(=O)O)c1ccccc1; CO = O=C([*:1])[*:2]; Bn = c1ccc(C*)cc1

Tests used:
[1] = assumption for full suppression curve; cited from earlier work
[2] = Phase 3 trial; cited from earlier work

Structure (SMILES)	half-life [1]	patients achieving normalization of urinary free cortisol [2]	patients with a hyperglycemia-related adverse event [2]
C[C@]12CCC(=O)C=C1CC[C@@H]1[C@@H]2[C@@H](O)C[C@@]2(C)[C@H]1CC[C@]2(O)C(=O)CO [cortisol]	1.1 ± 0.3 h	–	–
NCCCC[C@@H]1NC(=O)[C@@H](Cc2c[nH]c3ccccc23)NC(=O)[C@H](c2ccccc2)NC(=O)[C@@H]2C[C@@H](OC(=O)NCCN)CN2C(=O)[C@H](Cc2ccccc2)NC(=O)[C@H](Cc2ccc(OCc3ccccc3)cc2)NC1=O [pasireotide] (cyclo([Hyp]([CO-Ethylenediamine])[Phg][dW]KY(Bn)F))	–	15-26%	73%
